In patent US7767671B2, “3-Quinolinecarbonitrile protein kinase inhibitors” (Wyeth, priority 2004, dated 2010):

What was measured:
[1] = tested on: Rat2 fibroblasts transformed with v-Src/Hu c-Src fusion gene; test: Anchorage independent Src-transformed fibroblast proliferation; type: cell-based; settings: Rattus norvegicus, 120 h, suspension growth, MTS on Day 5, read-out: Src TF prolif IC50
Method: Anchorage Independent Src-transformed Fibroblast Proliferation Test Procedure: Rat2 fibroblasts stably transformed with a plasmid containing a CMV promotor controlled v-Src/Hu c-Src fusion gene in which the catalytic domain of human c-Src is inserted in place of the v-Src catalytic domain in the v-Src gene are used for the measurement of src dependent suspension growth. Ultra-low cluster plates (Costar #3474) are seeded with 10,000 cells per well on Day 1.

HT-29 cells = test: HT-29 cell proliferation on plastic (MTS); type: cell-based; settings: Homo sapiens; HT-29 cells on plastic, MTS on day five; read-out: HT-29 prolif IC50
Method: Cell Proliferation Test Procedure for Inhibitors of Src Kinase
HT-29 cells: Compound effectiveness at inhibiting cell proliferation on plastic is performed in a 96-well format by plating 5000 cells per well in appropriate medium on day one, followed by compound addition on day 2 in serial two-fold dilutions. On day five, compound is washed away and medium containing MTS reagent (Promega) is added. Relative cell number is determined by reading the absorbance at 490 nm of a dye produced by an NAD-dependent cellular enzymatic reaction.

p60c-src = molecular target: T1, p60c-src (Homo sapiens, UniProt P12931); test: Src kinase test procedure (ELISA); type: biochemical; settings: cdc2 substrate peptide, (a) = average of two runs
T1 construct: purchased Upstate Biotechnologies
Method: Src Kinase Test Procedure
Inhibitors of p60^c-src (partially purified preparation purchased from Upstate Biotechnologies) tyrosine kinase activity are analyzed in an Elisa format. The Boehringer Mannheim Tyrosine Kinase Assay Kit (Catalog number 1-534505) with a cdc2 substrate peptide containing Tyr15 is used for the assay. HRP-conjugated anti-phosphotyrosine is used to detect phosphorylated peptide via a color reaction. Conditions recommended by the manufacturer are employed.
Reaction conditions: Five microliter aliquots of each compound prepared fresh at the time of the assay are added as a solution in 10 mM HEPES pH 7.5, 10% DMSO to the reaction well. Thirty-five microliters of reaction mix containing Src, buffer and peptide/bovine serum albumin mix are added to the compound wells and incubated at 30° C. for 10 minutes (reaction buffer: 50 mM Tris HCl pH 7.5, 10 mM MgCl2, 0.1 mM EGTA, 0.5 mM Na3VO4). The reaction is started by addition of 10 microliters of ATP, incubated at 30° C. for 1 hour, and stopped by addition of 20 microliters of 0.5M EDTA. The reaction mixture with the phosphorylated peptide is then transferred to a streptavidin-coated microtiter plate (provided in the kit) and allowed to bind for 20 minutes. Unbound peptide and reaction mixture is decanted and the plate is washed with PBS six times. Horseradish peroxidase-conjugated phosphotyrosine antibody supplied in the kit is incubated with the plate for one hour, then decanted. The plate is again ished with PBS six times. Substrate (provided in the kit) is added and absorbance at 405 nm is measured.
Activity is determined as % inhibition as calculated by the formula: (1−Abs/Abs(max))×100=% inhibition. Where multiple concentrations of the test agent are used, an IC50 (concentration which gives 50% inhibition) could be determined.

[2] = molecular target: T2, Raf and/or Mek kinase (human c-Raf, GST-MEK1) (Homo sapiens, UniProt P04049+Q02750); test: Raf/Mek kinase cascade assay; type: biochemical; settings: c-Raf dependent activation of GST-MEK and GST-MAPK, phospho-MAPK ELISA; (a)/(b)/(c) = average of two/three/four runs
T2 construct: Sf9 insect cell lysate containing full length 6his-tagged recombinant human c-Raf; 6His; host or cells: Sf9 insect cells (c-Raf, used as lysate); E. coli (MEK1-GST, GST-MAPK)
Method: Raf/Mek Kinase Cascade Assay Procedure
(Specific Activity: ˜200 U/ml). Human Non-active Mek-1-GST and human GST-MAP kinase (recombinant proteins produced in E. coli).
Stock Solutions Raf/Mek Cascade Assay:
• 1. Assay Dilution Buffer (ADB): 20 mM MOPS, pH 7.2, 25 mM β-glycerol phosphate, 5 mM EGTA, 1 mM sodium orthovanadate, 1 mM dithiothreitol; • 2. Magnesium/ATP Cocktail: 500 μM cold ATP and 75 mM magnesium chloride in ADB; • 3. Active Kinase: Human Active c-Raf: Use at 0.4 U per assay point; • 4. Non-active GST-MEK1: Use at 0.1 μg per assay point; and • 5. Non-active GST-p42 MAP Kinase: Use at 1.0 μg per assay point. Stock Solutions ELISA: • 1. TBST-Tris (50 mM, pH 7.5), NaCl (150 mM), Tween-20 (0.05%); • 2. Superblock (Pierce); • 3. Anti-GST Ab (Pharmacia); • 4. Anti-Phospho MAPK (Sigma); and • 5. Anti-Mouse Ab/Europium conjugate (Wallac). Assay Procedure: First Stage: c-Raf Dependent Activation of GST-MEK and GST-MAPK • 1. Add […] of ADB per assay (i.e. per well of a 96 well plate); • 2. Add 10 ml of 0.5 mM cold ATP and 75 mM magnesium chloride in ADB; • 3. Add 2 ml of c-Raf (0.4 U/assay), in conjunction with 1.6 ml non-active MEK1 (0.4 […]/assay); • 4. Add 4 ml of non-active GST-p42 MAP Kinase (1.0 mg/assay); • 5. Incubate for 60 minutes at 30° C. in a shaking incubator; • 6. Transfer this mixture to an anti-GST Ab coated 96 well plate (Nunc Immunosorb plates coated o/n with a-GST, then blocked with Pierce Superblock); • 7. Incubate for 60 minutes at 30° C. in a shaking incubator; • 8. Wash 3× with TBST, add Anti-Phospho MAPK (Sigma) (1:3000); • 9. Incubate for 60 minutes at 30° C. in a shaking incubator; • 10. Wash 3× with TBST, add Anti-Mouse Ab/Europium conjugate (Wallac) (1:500); • 11. Incubate for 60 minutes at 30° C. in a shaking incubator; • 12. Wash 3× with TBST, Read plates in Wallac Victor model Plate Reader; and • 13. Collect data analyze in Excel for single point and IC50 determinations.
Single point assay—% inhibition at […] (% Inhibition=1−cpd·treated sample/untreated control). IC50 determinations—done on compounds from single point assays with >80% inhibition. Typically, the Raf/Mek assay is run at compound concentrations from 10 μM to 1 nM in half log dilutions. (% inhibition is determined for each compound concentration). The results obtained measure Raf and/or Mek kinase inhibition, and for representative compounds of this invention are listed in Table 1.

T1 sequence (P12931 whole entry): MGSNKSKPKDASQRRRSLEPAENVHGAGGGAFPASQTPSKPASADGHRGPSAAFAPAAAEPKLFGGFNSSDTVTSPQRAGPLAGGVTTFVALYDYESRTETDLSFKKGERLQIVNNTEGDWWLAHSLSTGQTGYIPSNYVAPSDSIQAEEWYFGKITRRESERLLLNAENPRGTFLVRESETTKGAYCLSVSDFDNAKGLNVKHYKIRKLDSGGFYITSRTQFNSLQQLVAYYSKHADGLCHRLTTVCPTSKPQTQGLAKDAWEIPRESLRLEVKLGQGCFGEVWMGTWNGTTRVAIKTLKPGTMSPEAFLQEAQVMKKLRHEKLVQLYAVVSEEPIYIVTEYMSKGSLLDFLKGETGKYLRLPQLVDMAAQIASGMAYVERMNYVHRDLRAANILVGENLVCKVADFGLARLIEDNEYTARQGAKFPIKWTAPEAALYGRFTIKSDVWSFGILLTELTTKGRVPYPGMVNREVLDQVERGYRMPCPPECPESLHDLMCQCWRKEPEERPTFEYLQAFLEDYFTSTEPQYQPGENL
T2 sequence (P04049 whole entry): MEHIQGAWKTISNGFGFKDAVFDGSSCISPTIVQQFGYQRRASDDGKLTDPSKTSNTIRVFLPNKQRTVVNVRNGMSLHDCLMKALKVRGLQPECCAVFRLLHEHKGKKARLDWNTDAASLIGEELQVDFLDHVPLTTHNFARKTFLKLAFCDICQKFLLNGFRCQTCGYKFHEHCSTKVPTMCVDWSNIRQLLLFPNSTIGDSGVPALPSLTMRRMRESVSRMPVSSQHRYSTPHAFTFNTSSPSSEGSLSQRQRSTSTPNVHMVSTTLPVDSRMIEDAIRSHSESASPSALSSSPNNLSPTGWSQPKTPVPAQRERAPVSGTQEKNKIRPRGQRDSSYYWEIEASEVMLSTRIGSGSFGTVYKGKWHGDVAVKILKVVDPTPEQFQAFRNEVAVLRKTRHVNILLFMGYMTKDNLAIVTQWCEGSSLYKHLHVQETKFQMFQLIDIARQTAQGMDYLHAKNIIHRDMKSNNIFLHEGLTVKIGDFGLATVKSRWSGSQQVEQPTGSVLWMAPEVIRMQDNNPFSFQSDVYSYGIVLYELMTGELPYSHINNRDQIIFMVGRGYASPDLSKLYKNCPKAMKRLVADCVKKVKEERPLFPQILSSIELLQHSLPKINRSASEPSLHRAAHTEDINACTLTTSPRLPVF
T2 sequence (Q02750 whole entry): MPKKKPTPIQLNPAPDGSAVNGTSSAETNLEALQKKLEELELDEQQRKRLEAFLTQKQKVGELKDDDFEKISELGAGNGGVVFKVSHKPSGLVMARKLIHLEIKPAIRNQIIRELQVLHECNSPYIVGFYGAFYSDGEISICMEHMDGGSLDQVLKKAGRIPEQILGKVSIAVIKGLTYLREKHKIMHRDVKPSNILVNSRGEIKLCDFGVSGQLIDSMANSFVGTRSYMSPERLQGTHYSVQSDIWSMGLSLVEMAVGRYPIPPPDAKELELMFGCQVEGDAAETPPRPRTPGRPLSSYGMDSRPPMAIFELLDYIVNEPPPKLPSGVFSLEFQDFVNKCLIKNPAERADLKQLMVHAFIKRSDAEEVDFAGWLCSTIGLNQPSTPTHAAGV

| melting point | IC50 (HT-29 cells) | IC50 (p60c-src) | IC50 [2] | Structure (SMILES) | IC50 [1] |
| --- | --- | --- | --- | --- | --- |
| 130 to 132 °C | 2.7 µM | 0.001 µM | – | COc1cc(Nc2c(C#N)cnc3cc(OCCCN4CCC(N5CCCCC5)CC4)c(OC)cc23)c(Cl)cc1Cl [Example 35, 7-(3-[1,4′-Bipiperidin]-1′-ylpropoxy)-4-[(2,4-dichloro-5-methoxyphenyl)amino]-6-methoxy-3-quinolinecarbonitrile] | 0.14 µM |
| 108 to 112 °C | 2.6 µM | 0.00055 µM | 0.25 µM | COc1cc(Nc2c(C#N)cnc3cc(OCCCN4CCC(N5CCCC5)CC4)c(OC)cc23)c(Cl)cc1Cl [Example 34] | 0.466 µM |
